# In patent US6921667B2, “Methods for direct detection of individual methotrexate metabolites” (Prometheus Laboratories, Inc., priority 2003, dated 2005):
# Assay: Red blood cell methotrexate polyglutamate concentrations in patients on low-dose methotrexate, by HPLC fluorometry with post-column photo-oxidation
# Format: in vivo, human
# Settings: single patient on 17.5 mg weekly methotrexate for at least 3 months; FIG. 4A; packed red blood cells
# Procedure: The liquid chromatograph was an Agilent 1100 HPLC chemstation system composed of a quaternary pump, a system controller, an autoinjector, a sample cooler kept at 4° C., and a fluorometer. […] Methotrexate polyglutamates were detected with post-column derivatization using a photochemical reactor unit (Aura Industries; New York, N.Y.) equipped with an elongated 254 nm low pressure mercury ultraviolet lamp and containing a 1/16″ outer diameter TEFLON™ tubing (internal diameter 0.25 mm) assembled as a knitted coil and connected on-line between the analytical column and fluorometer. The knitted coil was extended lengthwise through the photochemical reactor unit; all but a portion of the elongated lamp was masked with foil such that only a segment of the knitted coil was irradiated. In particular, the lamp was masked such that only 1 meter of the coil was irradiated with the lamp, which at a flow rate of 1 ml/min corresponded to 3 seconds irradiation. Methotrexate polyglutamate photolytic products were measured at an excitation wavelength of 274 nm and an emission wavelength of 464 nm, unless otherwise indicated. The retention times described herein were measured from time of injection to time of detection at the post-reactor unit fluorometer. […]
# Methotrexate polyglutamate photolytic products were analyzed at an excitation wavelength of 274 nm and an emission wavelength of 464 nm. […]
structure (smiles),measurement,value
"CN(Cc1cnc2nc(N)nc(N)c2n1)c1ccc(C(=O)N[C@@H](CCC(=O)O)C(=O)O)cc1 [MTXPG1, 4-amino-10-methylpteroylglutamic acid]",concentration in red blood cell sample,27 nM
